The values that follow come from patent US20160031937A1, “NEURAL REGENERATION PEPTIDES AND USES THEREFOR” (CURONZ HOLDINGS COMPANY LIMITED, priority 2013, published 2016).

The test system of experiment [1] is CXCR4 gene expression. In words: CXCR4 gene expression by real time PCR. Type of experiment: cell-based, human. The following applies: W9-hESCs. As for the experimental part: The second experiment was done to assess the capability of NRP2945 for regulating the gene expression of its target receptor subunit CXCR4. For this purpose, W9-hESCs were either exposed to 10 minute, 30 minute or 60 minute of either 10 pM or 100 pM of NRP2945 under normoxic conditions; or in combination with 4 hours of OGD injury at concentrations of either 10 pM or 100 pM of NRP2945. At the end of the 4 hours, mRNA was extracted from all the cell samples, cDNA synthesis was performed using the SuperSript® cDNA kit (Invitrogen) followed by real time PCR. The efficacy of the real time PCR was 99% when using the following primers for the CXCR4 product propagation: […]
according to the publication: Nagase, Miyamasu et al. (2000) - J Immunol 164: 5935-5943
In general terms: In qPCR the cycle at which signal appears reflects the starting amount.

Experiment [2] concerns the target T1, homodimeric CXCR4 receptor (Homo sapiens, UniProt P61073).
T1 construct: host or cells: HEK293
In words: 125I-SDF-1 displacement binding study (CEREP). To be noted: recombinant homodimeric CXCR4 expressing HEK293 cells; unlabelled peptide in competition. As to the method: This was determined by radioactive ^125I-SDF-1 displacement studies using CXCR4 homodimeric receptors and unlabelled NNZ-4921 and NRP2945 in competition.

For experiment [3], the system named is human W9-hESCs. In words: TUNEL staining for apoptotic cell death after H2O2 injury. In kind it is cell-based. The following applies: H2O2 oxidative stress, 24 hours; 100 fM NRP2945. As to the method:
(§1) Neuronal differentiation was achieved using the noggin induction method described for mouse neurospheres as adapted by Dottori for human neurospheres (Dottori & Pera, 2007). The colonies were maintained at 37° C., with 5% CO2 in hESC medium supplemented with 500 ng/ml of Noggin for 14 days while replacing Noggin every other day.
At this point, the cells were washed with PBS and the colonies were again mechanically dissociated, but this time the central (differentiated) part of the colony was also cut into smaller pieces using a 26-gauge needle. […]
The media was replaced with fresh NBM-AO and the cells were incubated for a further 20 hours containing drug, before again measuring LDH. Oxidative stress was induced by adding 50 μM fresh H2O2 (Sigma, H1009) to the growth factor negative NBM on initiation of the experiment with continued culture for 4 hours when LDH was measured and NBM-AO without H2O2 was returned to the culture which was maintained for a further 20 hours before again measuring LDH. […]
(§2) Tunnel positive cells, wells were imaged and the images re-coded independently before quantitation. No additional blinding was performed for the machine read LDH assay process.

The subject of experiment [4] is W9-hESCs. In words: TUNEL staining for apoptotic cell death after OGD injury. Type of experiment: cell-based, human. To be noted: 24 hours, 100 pM NRP2945. As for the experimental part: as §1
At this point, the cells were washed with PBS and the colonies were again mechanically dissociated, but this time the central (differentiated) part of the colony was also cut into smaller pieces using a 26-gauge needle. The pieces were transferred to individual wells in a low adherent 96-well plate containing Neurobasal®A (NBM) (Invitrogen) supplemented with 1× X B-27® (Invitrogen) and 1× N-2 (Invitrogen) 20 ng/ml human recombinant EGF and 20 ng/ml human recombinant bFGF (Pharmacia). […]
To maintain isoosmotic pressure conditions, 25 mM 2-deoxy-D-glucose was added to NBM-AO medium and equilibrated for 30 minutes at room temperature before the initial media change as described above. […] Culture supernatant was removed after this 4 hour period and stored at 4° C. until analysed for lactate dehydrogenase (LDH) activity. […]
as §2

Experiment [5] concerns neuronal stem cells. In words: Neuronal chemoattraction. Type of experiment: cell-based.

Square brackets hold non-standard residues; d marks the D form. Ends that are not written are not given here. Aib = CC(C)(N)C(=O)O

T1 sequence (P61073 whole entry): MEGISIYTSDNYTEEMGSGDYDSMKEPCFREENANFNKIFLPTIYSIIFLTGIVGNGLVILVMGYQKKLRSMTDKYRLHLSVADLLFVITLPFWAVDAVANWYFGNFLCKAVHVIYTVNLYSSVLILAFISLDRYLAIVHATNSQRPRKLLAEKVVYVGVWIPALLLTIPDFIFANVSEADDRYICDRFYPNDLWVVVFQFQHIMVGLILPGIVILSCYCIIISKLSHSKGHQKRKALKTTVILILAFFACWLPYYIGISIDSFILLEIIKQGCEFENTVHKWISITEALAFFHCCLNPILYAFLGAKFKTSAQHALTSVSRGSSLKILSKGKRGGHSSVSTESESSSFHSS

“Gly Arg Arg Ala Ala Pro Gly Arg Aib Gly Gly (GRRAAPGR[Aib]GG) [NRP2945, synthetic 11-mer peptidomimetic optimized for stability and pharmacokinetics]”: the “CXCR4 gene expression in the presence of OGD” value in experiment [1] (4 hours of OGD, 10 pM or 100 pM NRP2945) is given as “unchanged”. The “expression of CXCR4 gene” value in experiment [1] (normoxic conditions, 10 pM or 100 pM NRP2945, relative to normoxic control, normalised to β actin) is on record as “decreased significantly after only 10 minutes”. The “time of peak in CXCR4 gene down-regulation” value in experiment [1] (normoxic, maintained for at least 1 hour) was 30 min. Also, the “extent of CXCR4 down-regulation” value in experiment [1] (within 30 minutes) is “constitutively expressed levels seen in a human tissue cDNA library”. Further, the “displacement of 125I-SDF-1 from homodimeric CXCR4 receptor” value in experiment [2] is listed as “do not bind to the homodimeric CXCR4 receptor”. In addition, in experiment [3], the “cells spared from apoptosis (TUNEL)” value is listed as 56.2%. Moreover, the “W9-hESCs protected from apoptotic cell death (TUNEL)” value in experiment [4] came to 23%. For the same substance, in experiment [5] (NRP2945 versus SDF-1), the “neuronal chemoattractive potency relative to SDF-1” value is given as “more than 1 million”. For the same substance, in experiment [5] (preliminary experiments), the “EC50 values for chemoattraction” value is “lower femtomolar range”.
